Read-outs that look alike come from different tables or passages of the source. Where a SMILES comes first, the peptide text is derived from it. [ ]: non-standard residue; d: D form. Hiv = CC(C)[C@H](O)C(=O)O
Columns and labels:
[1] = test system: P. falciparum 3D7 parasites; assay: P. falciparum growth inhibition assay, 2-cycle (120 h treatment), delayed-death screen and dose-response; assay type: cell-based, Plasmodium falciparum; details: % growth; for activity at 2 µg/mL: Plasmodium falciparum, 3D7, 120 h
[2] = test system: T. gondii RH strain (RH-Tub-eYFP) tachyzoites; assay: microbe, parasite or virus in culture; assay type: cell-based, Toxoplasma gondii; details: 72 h, % growth; for percent parasite growth at 2 µg/mL: Toxoplasma gondii
[3] = test system: P. falciparum 3D7 parasites; assay: P. falciparum growth inhibition assay, 1-cycle (72 h treatment), SYBR DNA staining (library screen at 2 μg/mL and dose-response); assay type: cell-based, Plasmodium falciparum; details: for Pf_72h_%Growth_Rep1 / Pf_72h_%Growth_Rep2 / activity at 2 µg/mL: % growth; for activity at 2 µg/mL: Plasmodium falciparum
[4] = P. falciparum, 120 h, parasite screen 2 μg/mL, replicate 1
[5] = P. falciparum, 120 h, parasite screen 2 μg/mL, replicate 2
[6] = T. gondii, parasite screen 2 μg/mL, replicate 1
[7] = T. gondii, parasite screen 2 μg/mL, replicate 2
[8] = P. falciparum, 72 h, parasite screen 2 μg/mL, replicate 1
[9] = P. falciparum, 72 h, parasite screen 2 μg/mL, replicate 2
[10] = library screen at 2 μg/mL, 120 h, replicate 1
[11] = library screen at 2 μg/mL, 120 h, replicate 2
[12] = library screen at 2 μg/mL, replicate 1
[13] = library screen at 2 μg/mL, replicate 2
[14] = library screen at 2 μg/mL, 72 h, replicate 1
[15] = library screen at 2 μg/mL, 72 h, replicate 2

| SMILES | Pf_120h_%Growth_Rep1 [1, 4] [%] | Pf_120h_%Growth_Rep2 [1, 5] [%] | Tg_72h_%Growth_Rep1 [2, 6] [%] | Tg_72h_%Growth_Rep2 [2, 7] [%] | Pf_72h_%Growth_Rep1 [3, 8] [%] | Pf_72h_%Growth_Rep2 [3, 9] [%] | Pf_120h_%Growth_Rep1 [1, 10] [%] | Pf_120h_%Growth_Rep2 [1, 11] [%] | Tg_72h_%Growth_Rep1 [2, 12] [%] | Tg_72h_%Growth_Rep2 [2, 13] [%] | Pf_72h_%Growth_Rep1 [3, 14] [%] | Pf_72h_%Growth_Rep2 [3, 15] [%] | further results |
| --- | --- | --- | --- | --- | --- | --- | --- | --- | --- | --- | --- | --- | --- |
| COc1cc(C[C@H]2C(=O)OC[C@@H]2Cc2ccc3c(c2)OCO3)ccc1O [Pluviatolide] | 90.86 | 133.22 | 140.42 | 93.56 | 81.43 | 88.63 | – | – | – | – | – | – | – |
| CC(C)C[C@@H]1NC(=O)[C@H](C(C)C)NC(=O)[C@H](C(C)C)OC(=O)[C@@H](CC(C)C)NC(=O)[C@@H](C(C)C)NC(=O)[C@H](C(C)C)OC1=O [Sporidesmolide III] (cyclo([Hiv]VL[Hiv][dV][dL])) | 153.85 | 76.17 | 94.68 | 93.28 | 74.67 | 81.35 | – | – | – | – | – | – | – |
| CO[C@H]1/C=C/C=C/C=C/C[C@H](OC(=O)[C@@H](C)NC(=O)C2CCCCC2)[C@H](C)[C@@H](O)/C(C)=C\CCC2=CC(=O)C=C(NC(=O)C1)C2=O [Ansatrienin A] | – | – | – | – | – | – | 4.00 | -9.91 | 38.64 | 44.79 | 2.60 | 3.94 | – |
| C[C@H]1CC[C@H]2[C@@H](C=C[C@@H]3[C@H]4[C@@H](C)O[C@]5(O)[C@@H](CO)N(C)C(=O)[C@]45C(=O)[C@@]32C)C1 [Fusarisetin A] | – | – | – | – | – | – | 74.69 | 108.30 | 159.47 | 97.52 | 74.99 | 87.91 | – |
| CN1C(=O)[C@]23C[C@H]4C(C)(C)[C@]5(CNc6c5ccc5c6OC=CC(C)(C)O5)C[C@@]41CN2CC[C@@]3(C)O [Derquantel] | – | – | – | – | – | – | 88.90 | 91.44 | 207.28 | 97.75 | 84.92 | 84.29 | – |
| C[C@@H]1Cc2c(Cl)cc(C(=O)N[C@@H](Cc3ccccc3)C(=O)O)c(O)c2C(=O)O1 [BIA-O1195] | – | – | – | – | – | – | – | – | – | – | – | – | Pf_120h_%Growth_Rep1 ([1]; P. falciparum 3D7, 120 h, parasite screen at 2 μg/mL, replicate 1): 103.82%; Pf_120h_%Growth_Rep2 ([1]; P. falciparum 3D7, 120 h, parasite screen at 2 μg/mL, replicate 2): 136.40%; Tg_72h_%Growth_Rep1 ([2]; T. gondii, parasite screen at 2 μg/mL, replicate 1): 120.41%; Tg_72h_%Growth_Rep2 ([2]; T. gondii, parasite screen at 2 μg/mL, replicate 2): 95.09%; Pf_72h_%Growth_Rep1 ([3]; P. falciparum 3D7, 72 h, parasite screen at 2 μg/mL, replicate 1): 84.32%; Pf_72h_%Growth_Rep2 ([3]; P. falciparum 3D7, 72 h, parasite screen at 2 μg/mL, replicate 2): 95.25% |
| CC[C@H]1CCC[C@H](O)[C@@H](C)C(=O)C2=C[C@@H]3[C@@H](C=C[C@@H]4C[C@@H](O)C[C@@H]34)[C@@H]2CC(=O)O1 [Spinosyn A aglycone] | 95.52 | 13.75 | 107.96 | 78.11 | 91.52 | 38.04 | – | – | – | – | – | – | IC50 ([3]; 3D7, 72 h treatment, mean ± S.D., n ≥ 3, read-out: IC50 (μM), P. falciparum): > 1 µM; Screen (P. falciparum) ([3]; library screen at 2 μg/mL, 3D7, 72 h, DD from the 120 h timepoint): I |
| CCC(C)(C)C(=O)O[C@H]1C[C@@H](C)C=C2C=C[C@H](C)[C@H](CC[C@@H]3C[C@@H](O)CC(=O)O3)[C@H]21 [Simvastatin] | – | – | – | – | – | – | – | – | – | – | – | – | activity at 2 µg/mL ([1]; P. falciparum, 120 h, parasite screen 2 μg/mL, replicate 1, read-out: Pf_120h_%Growth_Rep1): 83.8%; activity at 2 µg/mL ([1]; P. falciparum, 120 h, parasite screen 2 μg/mL, replicate 2, read-out: Pf_120h_%Growth_Rep2): 70.2%; percent parasite growth at 2 µg/mL ([2]; T. gondii, parasite screen 2 μg/mL, replicate 1, read-out: Tg_72h_%Growth_Rep1): 93.5%; percent parasite growth at 2 µg/mL ([2]; T. gondii, parasite screen 2 μg/mL, replicate 2, read-out: Tg_72h_%Growth_Rep2): 71.4%; activity at 2 µg/mL ([3]; 3D7, 72 h, P. falciparum, 72 h, parasite screen 2 μg/mL, replicate 1, read-out: Pf_72h_%Growth_Rep1): 83.1%; activity at 2 µg/mL ([3]; 3D7, 72 h, P. falciparum, 72 h, parasite screen 2 μg/mL, replicate 2, read-out: Pf_72h_%Growth_Rep2): 118% |

Source: paper PMC12396409, “Screening and hit evaluation of a microbial metabolite library against the pathogenic Plasmodium falciparum and Toxoplasma gondii parasites” (International Journal for Parasitology: Drugs and Drug …, 2025)
